Data: paper PMC8220418, “A fragment-based approach to assess the ligandability of ArgB, ArgC, ArgD and ArgF in the L-arginine biosynthetic pathway of Mycobacterium tuberculosis” (Computational and Structural Biotechnology Journal, 2021)
≈ marks a conversion by molar mass, not a printed value.

Experiments:
ArgF [1] = target: T1, ArgF (Mycobacterium tuberculosis, UniProt P9WIT9); test: biochemical; format: binding; conditions: fragments at 5 mM, 5 µM ArgF, 5% DMSO; read-out: DSF ΔTm
Procedure: Fragment screening was carried out in a 96-well PCR plate using a CFX Connect Real-time PCR Detection System (Bio-Rad) for DSF. […] For ArgF each 25 μL reaction mixture contained 5 µM ArgF, 25 mM Tris-HCl (pH 8.0), 150 mM NaCl, 5x SYPRO Orange dye, 5 mM fragments and 5% DMSO (v/v). […] The protocol implemented increased temperature by 0.5 °C after every 30 s, going from 25 °C to 95 °C and measuring SYPRO Orange fluorescence for each temperature cycle. The melt curve RFU (relative fluorescence units) and derivative -d(RFU)/dT values were analysed and plotted using a macros-enabled Excel Workbook: the minima of the melt curves were recorded as the melting temperature (Tm) of the enzymes in the presence of each fragment. The Tm of the reference control (protein in the presence of DMSO) was subtracted from all the readings to calculate ΔTm.

ArgF [2] = target: T1, ArgF; test: Isothermal titration calorimetry with ArgF; format: binding; conditions: 25 °C, single-site model; read-out: ITC Kd
Procedure: ArgF was dialysed in 50 mM HEPES pH 8.0, 200 mM NaCl before it was loaded into the calorimetry cell at concentrations of 75–100 μM with the addition of 1 mM DTT. Ligand solutions at concentrations of 1 mM were dissolved in the same buffer and typically injected between 0.5 μL and 2 μL at 150 s intervals with stirring at 750 rpm. Buffer-ligand titrations were carried out as reference runs and subtracted from the protein–ligand titration to remove the heat of dilution. Data were analysed by fitting a simple single-site model using Origin software (Microcal).

M. tuberculosis = test system: M. tuberculosis; design: method as in PMID 29483133; conditions: BALB/c mice, chemical inhibition of ArgJ; cited from earlier work
ArgB [3] = target: T2, ArgB (Mycobacterium tuberculosis, UniProt P9WQ01); test: Differential scanning fluorimetry (DSF) fragment screening against ArgB; format: binding; conditions: fragments at 5 mM, 10 µM ArgB, 5% DMSO
Procedure: Fragment screening was carried out in a 96-well PCR plate using a CFX Connect Real-time PCR Detection System (Bio-Rad) for DSF. For ArgB, each 25 μL reaction mixture contained 10 µM ArgB, 100 mM HEPES (pH 7.5), 200 mM NaCl, 5x SYPRO Orange, 5% DMSO (v/v), and fragments at 5 mM. For ArgF each 25 μL reaction mixture contained 5 µM ArgF, 25 mM Tris-HCl (pH 8.0), 150 mM NaCl, 5x SYPRO Orange dye, 5 mM fragments and 5% DMSO (v/v). For ArgC and ArgD, the 25 μL reaction volume consisted of the following: 2.5 μM ArgC/5 μM ArgD, 100 mM sodium phosphate pH 7, 200 mM NaCl, 5x SYPRO Orange, and 5 mM fragments (960 fragment library). The protocol implemented increased temperature by 0.5 °C after every 30 s, going from 25 °C to 95 °C and measuring SYPRO Orange fluorescence for each temperature cycle. The melt curve RFU (relative fluorescence units) and derivative -d(RFU)/dT values were analysed and plotted using a macros-enabled Excel Workbook: the minima of the melt curves were recorded as the melting temperature (Tm) of the enzymes in the presence of each fragment. The Tm of the reference control (protein in the presence of DMSO) was subtracted from all the readings to calculate ΔTm.

ArgB [4] = target: T2, ArgB; test: Ligand-observed NMR (CPMG) with ArgB, incl. displacement experiments; format: binding; conditions: 2 mM fragment, 10 µM ArgB; for NMR competition with natural ligands (ATP, NAG, L-arginine): 1 mM each natural ligand
ArgB [5] = target: T2, ArgB; test: Ligand-observed NMR (STD) with ArgB; format: binding; conditions: 2 mM fragment, 10 µM ArgB
ArgB [6] = target: T2, ArgB; test: biochemical; format: binding; conditions: 25 °C, single-site model; read-out: ITC Kd
ArgB [7] = target: T2, ArgB; test: ArgB enzymatic assay (ADP release coupled to NADH oxidation, pyruvate kinase/lactate dehydrogenase); format: biochemical; conditions: for IC50: 0.5 µM ArgB, 0.3 mM ATP, 1.25 mM NAG, 10% DMSO, read-out: IC50; for Nature of ArgB inhibition in enzymatic competition assays: 0.3 mM ATP or NAG, other substrate varied
Procedure: ArgB activity was assessed by a colorimetric assay that followed the release of ADP by measuring the oxidation of NADH at 340 nm, for 30 min, in the presence of pyruvate kinase and lactate dehydrogenase in a PHERAstar plate-reader (BMG-Labtech). […]. Inhibitors were also individually screened against the coupled enzymes to eliminate any compounds interfering with the other assay components. Competition assays were performed in the same conditions using 0.3 mM of ATP or NAG and varying the other substrate concentration.

M. tuberculosis H37Rv = test: microbe, parasite or virus in culture; format: cell-based, Mycobacterium tuberculosis; conditions: for MIC: Mycobacterium tuberculosis, media without arginine; for Inhibitory activity on growth with arginine present: arginine (1 mM) in the media
M. tuberculosis ΔargB-c = test: microbe, parasite or virus in culture; format: cell-based, Mycobacterium tuberculosis; conditions: for MIC: Mycobacterium tuberculosis
[8] = test system: M. tuberculosis MDR strain V2475; test: microbe, parasite or virus in culture; format: cell-based, Mycobacterium tuberculosis; conditions: for MIC: Mycobacterium tuberculosis
ArgD [9] = target: T3, ArgD (Mycobacterium tuberculosis, UniProt P9WPZ7); test: Differential scanning fluorimetry (DSF) against ArgD; format: binding; conditions: fragments at 5 mM, PLP-unsaturated ArgD
T3 sequence (P9WPZ7 whole entry, the tested form may be a part): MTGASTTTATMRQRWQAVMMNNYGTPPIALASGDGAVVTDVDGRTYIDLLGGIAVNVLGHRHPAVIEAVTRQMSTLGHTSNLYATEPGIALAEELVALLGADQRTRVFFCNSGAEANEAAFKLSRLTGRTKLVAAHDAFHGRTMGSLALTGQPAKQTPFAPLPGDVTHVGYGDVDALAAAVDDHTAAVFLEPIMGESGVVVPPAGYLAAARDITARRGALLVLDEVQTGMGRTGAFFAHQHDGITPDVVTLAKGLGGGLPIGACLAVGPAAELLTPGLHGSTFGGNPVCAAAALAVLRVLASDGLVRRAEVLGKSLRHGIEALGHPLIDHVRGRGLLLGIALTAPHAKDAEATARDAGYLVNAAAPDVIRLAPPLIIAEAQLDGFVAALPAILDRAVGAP

ArgD [10] = target: T3, ArgD; test: Surface plasmon resonance with immobilised ArgD; format: binding; conditions: fragments at 1 mM, adjusted for molecular weight
ArgD [11] = target: T3, ArgD; test: ArgD end point enzymatic assay (reverse reaction, 2-aminobenzaldehyde, 440 nm); format: biochemical
Procedure: To assess the activity of ArgD an end point assay that follows the reverse reaction of the enzyme was used in the presence and absence of fragments. Reactions (100 μL) were set up containing the following: 100 mM Tris-HCl pH 8, 3 mM N-acetylornithine (NAO), 3.4 mM α-KG, 20 μM PLP and 4 μM enzyme. Duplicate reaction mixtures were prepared for each time point and 8 time points (0, 5, 10, 15, 20, 30, 45, 60 min) were tested in total. Two controls were prepared: one with all reaction components except the enzyme, and the other with all reaction components except NAO (NAO was added after HCl treatment). The reactions tubes were allowed to equilibrate in a heating block set at 37 °C for two minutes, and the enzyme was added to initiate the reaction. After the stipulated incubation times, contents of the reaction tubes were quickly transferred to 1.5 ml microcentrifuge tubes containing 60 μL of 6 N HCl to stop the reactions. These tubes were then kept in a heating block set at 95 °C for 30 min, after which they were cooled to 25 °C in a water bath. 200 μL of 3.6 M sodium acetate was added to each tube (final concentration of 1.8 M), along with 40 μL of 30 mM 2-aminobenzaldehyde (final concentration of 3 mM in a total volume of 400 μL). A yellow colouration started developing as soon as the latter was added, the contents were vortexed and the tubes were incubated at 25 °C for 15 min. 200 μL of each reaction mixture was transferred into wells of a 96-well flat bottom UV transparent microplate, and absorbance at 440 nm was measured using the PHERAstar plate reader. All experiments were performed at least in triplicate in a PHERAstar plate-reader (BMG-Labtech) and the control without ArgD was used for blank subtraction. Data were analysed with GraphPad Prism (Graphpad Software). All reagents were obtained from Sigma-Aldrich.
Aminotransferases are often assayed for the reverse reactions they catalyse because in most cases substrates for the forward reaction are not commercially sold. […]

T1 sequence (P9WIT9 whole entry, the tested form may be a part): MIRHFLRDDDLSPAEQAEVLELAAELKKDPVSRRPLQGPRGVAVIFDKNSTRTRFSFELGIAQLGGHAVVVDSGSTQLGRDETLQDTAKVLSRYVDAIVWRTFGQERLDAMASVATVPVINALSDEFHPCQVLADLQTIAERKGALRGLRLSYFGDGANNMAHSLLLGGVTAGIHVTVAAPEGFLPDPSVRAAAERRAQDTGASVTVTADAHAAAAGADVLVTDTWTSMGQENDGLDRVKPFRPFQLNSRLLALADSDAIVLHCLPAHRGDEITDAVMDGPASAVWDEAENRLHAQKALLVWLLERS

Compound | ΔTm at 5000 µM (ArgF [1]) [°C] | Kd (ArgF [2]) [µM] | ΔTm at 5000 µM (ArgB [3]) [°C] | CPMG (ArgB [4]) | NMR competition with natural ligands (ATP, NAG, L-arginine) (ArgB [4]) | STD (ArgB [5]) | Kd (ArgB [6]) [µM] | IC50 (ArgB [7]) [µM] | Nature of ArgB inhibition in enzymatic competition assays (ArgB [7]) | MIC (M. tuberculosis H37Rv) [µg/mL] | Inhibitory activity on growth with arginine present (M. tuberculosis H37Rv) | Inhibitory activity on growth with arginine present (M. tuberculosis ΔargB-c) | MIC (M. tuberculosis ΔargB-c) [µg/mL] | MIC [8] [µg/mL] | other results
Cc1sc(N)nc1-c1ccccc1 [NMR007] | 3 | 161 ± 20 | – | – | – | – | – | – | – | – | – | – | – | – | –
OB(O)c1cc(Cl)cc(Cl)c1 [NMR812] | 3.6 | 120 ± 30 | – | – | – | – | – | – | – | – | – | – | – | – | –
O=C(Nc1cccc2c(=O)cc(-c3nnn[nH]3)oc12)c1ccc(OCCCCc2ccccc2)cc1 [Pranlukast] | – | – | – | – | – | – | – | – | – | – | – | – | – | – | Effect on chronic M. tuberculosis infection (M. tuberculosis): cleared a chronic M. tuberculosis infection
O=c1cc(C(F)(F)F)[nH]c2c(C(F)(F)F)cccc12 [NMR711, 2,8-bis(trifluoromethyl)-1H-quinolin-4-one] | – | – | 7.9 | binds | not competitive | binds | 7.7 ± 0.8 | 366 ± 4 | non-competitive | 25 to 50 (≈ 88.9 to 178 µM) | inhibitory | inhibitory | 25 to 50 (≈ 88.9 to 178 µM) | 25 to 50 (≈ 88.9 to 178 µM) | Inhibitory activity on growth with arginine present ([8]; V2475, arginine (1 mM) in the media): inhibitory
O=c1cc[nH]c2c(C(F)(F)F)cccc12 [NMR446, 8-(trifluoromethyl)-1H-quinolin-4-one] | – | – | 8 | binds | not competitive | binds | 24 ± 1.5 | 707 ± 7 | non-competitive | > 200 | no inhibitory activity | no inhibitory activity | > 200 | > 200 | –
O=C(O)c1cc2ccccc2cc1O [NMR608, 3-Hydroxy-2-naphthoic acid] | – | – | – | – | – | – | – | – | – | – | – | – | – | – | ΔTm at 5000 µM (ArgD [9]): 2.4 °C; SPR Binding Response with PLP injection (ArgD [10]): 50.3 RU; % inhibition at 2 mM (ArgD [11]; 2 mM fragment, 4 μM ArgD): 16.6%; inhibition at 2000 µM (ArgD [11]; 2 mM fragment, 4 μM ArgD): 16%; inhibition at 4000 µM (ArgD [11]; read-out: % inhibition at 4 mM, 4 mM fragment, 4 μM ArgD): 31%
